Data as given in patent publication US5643926A, “Pyrazolidinone CCK and gastrin antagonists and pharmaceutical formulations thereof” (priority 1994, dated 1997).
Each block holds one molecule with its values, some of them ahead of it.

Columns and labels:
[1] = target: T1, CCK receptor, mouse brain membranes (Mus musculus, UniProt P56481); test: Brain CCK receptor binding (displacement of 125I-CCK-8 sulfate, mouse brain membranes)
T1 construct: from tissue; host or cells: forebrain membranes of male CF-1 mice
T1 sequence (P56481 1-453): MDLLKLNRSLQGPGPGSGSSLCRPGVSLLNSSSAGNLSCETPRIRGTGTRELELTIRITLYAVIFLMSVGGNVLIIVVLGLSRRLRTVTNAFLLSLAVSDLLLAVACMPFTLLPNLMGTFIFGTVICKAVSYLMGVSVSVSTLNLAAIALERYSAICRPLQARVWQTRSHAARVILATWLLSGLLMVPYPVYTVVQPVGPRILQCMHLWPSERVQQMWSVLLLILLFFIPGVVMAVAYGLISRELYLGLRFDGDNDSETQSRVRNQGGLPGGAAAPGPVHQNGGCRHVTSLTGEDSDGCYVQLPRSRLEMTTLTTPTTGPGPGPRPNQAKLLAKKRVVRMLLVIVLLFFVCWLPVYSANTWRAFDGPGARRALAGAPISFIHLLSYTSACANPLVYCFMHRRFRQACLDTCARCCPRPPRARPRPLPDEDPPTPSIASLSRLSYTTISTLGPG
Experimental: (§1) Test Procedures for CCK and Gastrin Receptor Binding (IC50)
Brain CCK receptor binding was performed using mouse brain membranes according to the method of Chang and Lotti (Proc. Natl. Acad. Sci. 83: 4923-4926, 1986). Male CF-1 mice, 23-25 g were sacrificed by cervical dislocation, the forebrain removed and placed in ice cold 50 mM Tris buffer, pH 7.4. The tissue was homogenized in 100 volumes of the Tris buffer with a Brinkman Polytron or Tekmar Tissumizer and then centrifuged at 40,000 g for 10 min. Pellets were resuspended in Tris buffer, centrifuged as above and then resuspended in 100 volumes of assay buffer, pH 6.5 (20 mM N-2-hydroxyethyl-piperazine-N'-2-ethane sulfonic acid (HEPES), 1 mM ethylene glycol bis(2-aminoethyl ether-N,N,N',N'-tetraaceticacid) (EGTA), 5 mM MgCl2, 130 mM NaCl, and 0.25 mg/ml bacitracin). The binding assay consisted of 50 μL of compound (or buffer for total binding), 50 μL of ^125 I-CCK-8 sulfate (20 pM) (Amersham IM-159), 200 μL of assay buffer and 200 μL of homogenate (80-120 μg protein). The samples were incubated at room temperature (25°) for 2 hours, and they were then filtered through GF/B glass fiber filters (soaked in wash buffer for 2 hours before use) using a 48 well Brandel cell harvester designed for receptor binding. The filters were washed twice with 3 ml of 50 mM Tris buffer, pH 7.4, containing 0.01% BSA and then counted for radioactivity in plastic tubes with a Micromedic 10/600 automatic gamma counter.
Compounds were dissolved in dimethyl sulfoxide (DMSO) at a concentration of 10 mM and then further diluted with assay buffer. The concentration of DMSO in the incubation was 0.1% or less and had no effect on the assay at that level. IC-50 values of displacement curves were determined using 7 concentrations of compound and were calculated using the ALLFIT computer program of DeLean, Munson and Rodbard (Am. J. Physiol. 235: E97-E102, 1978). Non-specific binding was determined as the displacement of the radioligand by 100 nM CCK-8 sulfate.
Table III below summarizes representative CCK and gastrin-binding tests results for exemplified compounds in accordance with this invention.

Titration pKa = format: physicochemical; conditions: 2:1 DMF:H2O as solvent
Source text: Tetrahydrofuran (THF) was dried by distillation from sodium/benzophenone.

[2] = target: T2, peripheral type CCK receptors in rat pancreas (Rattus norvegicus, UniProt P30551); test: Binding to peripheral type CCK receptors in rat pancreas (displacement of 3H-L-364,718); conditions: read-out: Pancreas CCK receptor binding, Percent Inhibition at 10 μM
T2 construct: Pancreas was obtained from male Sprague-Dawley rats; from tissue; host or cells: pancreas membranes of male Sprague-Dawley rats
T2 sequence (P30551 1-444): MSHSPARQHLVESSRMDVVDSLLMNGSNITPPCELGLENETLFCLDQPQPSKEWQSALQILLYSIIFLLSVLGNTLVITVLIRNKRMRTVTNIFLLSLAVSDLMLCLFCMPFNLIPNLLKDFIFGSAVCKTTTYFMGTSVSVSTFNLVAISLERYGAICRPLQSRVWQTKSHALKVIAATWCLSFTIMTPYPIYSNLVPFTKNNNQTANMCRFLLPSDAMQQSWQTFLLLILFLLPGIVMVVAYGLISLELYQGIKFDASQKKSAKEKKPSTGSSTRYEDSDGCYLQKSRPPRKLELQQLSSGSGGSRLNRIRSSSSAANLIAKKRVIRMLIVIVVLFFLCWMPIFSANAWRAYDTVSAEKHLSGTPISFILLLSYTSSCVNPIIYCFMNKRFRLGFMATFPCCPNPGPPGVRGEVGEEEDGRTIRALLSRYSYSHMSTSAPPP
Experimental: as §1
Binding to peripheral type CCK receptors in rat pancreas was done according to the method of Chang et al. (Mol. Pharmacol. 30: 212-217, 1986) using ^3 H-L364, 718. Pancreas was obtained from male Sprague-Dawley rats, 150-200 g, after decapitation, and dissected free from adipose and connective tissue. The tissue was homogenized in 30 volumes of 50 mM Tris buffer, pH 7.4 and centrifuged at 40,000 g for 10 min. The tissue pellet was washed by resuspension and centrifugation as described above. The final pellet was suspended in 500 volumes of assay buffer (50 mM Tris buffer, pH 7.4, 5 mM MgCl2, 0.14 mg/ml bacitracin, and 5 mM dithiothreitol) to give a protein concentration of 30-60 μg/200 μl . Reagent volumes for the assay were the same as those used for CCK binding to brain membranes. Tritium labeled L-364,718 (Dupont NEN, NET-971) was used as the ligand at a concentration of 0.4-0.6 nM. The samples were incubated 1 hour at room temperature and then filtered as described for the CCK-brain receptor. Scintillation cocktail was added to the filters which were counted for radioactivity using a Micromedic Taurus automatic liquid scintillation counter.
Compound samples were prepared and IC-50 values were determined as described for the CCK-brain experiments. […]

[3] = target: T3, gastrin receptor, guinea pig stomach mucosal membranes (Cavia porcellus, UniProt H0VZC5); test: Gastrin binding to guinea pig stomach mucosal membranes (displacement of 125I-gastrin I); conditions: guinea pig gastric mucosa
T3 construct: Guinea pig stomach fundus was obtained from male Hartley guinea pigs; from tissue; host or cells: stomach fundus mucosal membranes of male Hartley guinea pigs
T3 sequence (H0VZC5 1-426): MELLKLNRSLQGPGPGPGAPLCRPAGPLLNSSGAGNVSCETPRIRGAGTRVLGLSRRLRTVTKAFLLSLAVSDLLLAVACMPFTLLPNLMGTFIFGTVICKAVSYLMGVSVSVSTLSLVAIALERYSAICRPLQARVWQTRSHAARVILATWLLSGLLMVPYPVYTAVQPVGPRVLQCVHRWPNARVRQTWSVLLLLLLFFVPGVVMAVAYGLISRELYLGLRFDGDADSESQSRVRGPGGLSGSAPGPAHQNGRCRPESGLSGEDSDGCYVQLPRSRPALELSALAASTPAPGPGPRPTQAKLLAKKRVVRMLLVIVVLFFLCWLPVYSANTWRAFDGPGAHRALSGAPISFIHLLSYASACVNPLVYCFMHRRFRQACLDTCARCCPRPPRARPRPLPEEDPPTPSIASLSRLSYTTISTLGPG
Experimental: as §1
The method used for gastrin binding to guinea pig stomach mucosal membranes was similar to that described by Takeuchi, Speir and Johnson (Am. J. Physiol. 237(3): E284-E294, 1979). Guinea pig stomach fundus was obtained from male Hartley guinea pigs, 300-350 g, and the mucosa was scraped off with a glass slide. The mucosa was homogenized in 50 mM Tris buffer, pH 7.4, containing 1 mM phenylmethanesulfonyl fluoride using a Dounce glass homogenizer, and the suspension was centrifuged at 40,000 g for 10 min. The resulting pellet was resuspended and centrifuged once more, the final pellet was then suspended in 100 ml assay buffer per 1 guinea pig stomach to give a protein concentration of 200-300 μg/200 μl. The assay buffer consisted of 50 mM Tris buffer, pH 7.4, 5 mM MgCl2, 0.14 mg/ml bacitracin, and 1 μg/ml each of leupeptin, chymostatin, aprotinin and pepstatin. Reagent volumes for the assay were the same as those used for CCK binding to brain membranes. […] The samples were incubated 3 hours at room temperature and filtered and counted as described for CCK binding to brain membranes. Compound samples were prepared and IC-50 values were determined as described for the CCK-brain receptor binding. Non-specific binding was determined using 100 nM gastrin I (human synthetic from Sigma Chemical Co.). […]

Brain CCK receptor binding, Percent Inhibition at 10 μM ([1]; at 10 μM): 67%
Molecule: 1-[(4-Bromophenyl)aminocarbonyl]-2-(O-t-butyl-carboxymethyl)-4,5-diphenyl-3-pyrazolidinone and 1-[(4-bromophenyl)aminocarbonyl]-3-(O-t-butylcarboxymethoxy)-4,5-diphenyl- 2-pyrazoline [Example 11]

titration pKa (Titration pKa): 4.8
Molecule: 1-[(4-Bromophenyl)aminocarbonyl]-2-carboxymethyl-4,5-diphenyl-3-pyrazolidinone and 1-[(4-bromophenyl)aminocarbonyl]-3-carboxymethoxy-4,5-diphenyl-2-pyrazoline [Example 12]

IC50 [1]: 1000 nM
Molecule: O=C(O)CN1C(=O)[C@H](c2ccccc2)[C@@H](c2ccccc2)N1C(=O)Nc1ccc(Br)cc1 (relative stereo) [Example 12 (N-), 1-[(4-Bromophenyl)aminocarbonyl]-2-carboxymethyl-4,5-diphenyl-3-pyrazolidinone]

inhibition at 10 µM [2]: 4%
Molecule: O=C1NN(C(=O)Cc2ccc(C(F)(F)F)cc2)[C@@H](c2ccccc2)[C@@H]1c1ccccc1 (relative stereo) [Example 77]

Molecule: O=C1NN(c2nc3c(Cl)c(Cl)ccc3s2)[C@@H](c2ccccc2)[C@@H]1c1ccccc1 (relative stereo) [Example 86]
IC50 [1]: 1100 nM

IC50 [3]: 62 nM
IC50 [1]: 10 nM
Molecule: O=C1NN(C(=O)Nc2ccc3ccccc3c2)[C@@H](c2ccccc2)[C@@H]1c1ccccc1 (relative stereo) [Example 91]

inhibition at 10 µM [2]: 47%
Molecule: O=C1NN(C(=O)Nc2ccc(C(F)(F)F)cc2)C(c2ccccc2Cl)C1c1ccccc1 (centres unmarked) [Example 110]
